Patent US20240201204A1, “Biomarker and Druggable Target of Neurodegeneration” (University Hospitals Cleveland Medical Center, priority 2020, published 2024)

Assays:
[1] = patients with pediatric and adolescent congenital muscular dystrophy; cited from earlier work
C57BL/6J mice = assay: Foot slip test of motor function after TBI; type: in vivo, mouse; conditions: low-dose salsalate daily IP from 24 h after TBI, vs. TBI+Vehicle
Method: Drug preparation and administration: CGP3466B (Sigma-Aldrich, SML1941) was dissolved in DMSO and then diluted in sterile saline. The final working stock was 0.0014 mg/ml for administering the 0.014 mg/kg dose. Intraperitoneal administration of CGP3466B was initiated 15 min or 24 h after injury, and tissues were harvested 6 h (for SNO-GAPDH, SNO-SIRT1 measurement) or 2 weeks (for ac-tau measurement) later, respectively. Salsalate (AdipoGen, AG-CR1-3574) was dissolved in DMSO and then diluted in sterile PBS. The final working stocks were as follows: 2.5 mg/ml (25 mg/kg dose), 1 mg/ml (10 mg/kg dose), 0.5 mg/ml (5 mg/kg dose). Daily intraperitoneal administration of salsalate was initiated 24 hr after injury and continued throughout behavioral testing. P7C3-A20 and FK866 (Sigma-Aldrich, F8557) were first dissolved in 1 vol of DMSO, followed by addition of 4 vol of Kolliphor and vigorously vortexing. The solution was then diluted with 30 vol of filtered 5% dextrose (pH 7.0). EX527 (Selleckchem, S1541) was dissolved in 1% DMSO+30% polyethylene glycol+1% Tween 80. Daily intraperitoneal administration of P7C3-A20 was initiated 24 hr after poly-traumatic brain injury. […]
Foot slip test of motor function: Mice were trained to cross an 80 cm-long beam over two days and then tested on day 16. Video of the mice was recorded and analyzed by observers blind to treatment group.

[2] = Body weight during treatment after TBI; type: in vivo, mouse; conditions: salsalate daily IP from 24 h after TBI
Method: Drug preparation and administration: CGP3466B (Sigma-Aldrich, SML1941) was dissolved in DMSO and then diluted in sterile saline. The final working stock was 0.0014 mg/ml for administering the 0.014 mg/kg dose. […] Salsalate (AdipoGen, AG-CR1-3574) was dissolved in DMSO and then diluted in sterile PBS. The final working stocks were as follows: 2.5 mg/ml (25 mg/kg dose), 1 mg/ml (10 mg/kg dose), 0.5 mg/ml (5 mg/kg dose). Daily intraperitoneal administration of salsalate was initiated 24 hr after injury and continued throughout behavioral testing. […] and FK866 (Sigma-Aldrich, F8557) were first dissolved in 1 vol of DMSO, followed by addition of 4 vol of Kolliphor and vigorously vortexing. The solution was then diluted with 30 vol of filtered 5% dextrose (pH 7.0). EX527 (Selleckchem, […]) was dissolved in 1% DMSO+30% polyethylene glycol+1% Tween 80. Daily intraperitoneal administration of […] was initiated 24 hr after poly-traumatic brain injury. EX527 (10 mg/kg) was administer once a day and FK866 was treated twice per day, with the first injection given at the same time as […] (20 mg/kg) and the second injection given 6 h later (LoCoco et al., 2017 eLife). […] The solution was then diluted with 7 vol of saline to the appropriate concentration for administration at 25, 50, or 100 mg/kg.

clinically-diagnosed TBI = assay: Pharmacoepidemiologic cohort analysis (MarketScan Medicare Supplemental database), incidence of TBI; type: in vivo, human; conditions: vs. PS-matched aspirin cohort, Cox regression model, 6 years of follow-up
Description: (§1) Because ac-tau has been generally reported in the brains of subjects with AD, we evaluated the relationship between salsalate or diflunisal use and incidence of clinically-diagnosed TBI or AD by analyzing 7.23 million U.S. commercially-insured individuals (MarketScan Medicare Supplemental database). We conducted two cohort analyses to evaluate the predicted association, based on individual level of longitudinal patient data and pharmacoepidemiologic methods, as previously established (Cheng et al., 2018). Thus, our two cohorts included: (1) salsalate vs. a matched aspirin population and (2) diflunisal vs. a matched aspirin population (Table 2). For each comparison, we estimated the un-stratified Kaplan-Meier curves and conducted propensity score (PS) stratified (n strata=10) log-rank tests and a Cox regression model after adjusting age, race, sex, and disease comorbidities (including diabetes, hypertension, and coronary artery disease) using a propensity score-matching method (Methods).
Study cohorts. The IBM® MarketScan® Medicare Supplemental Database is one of the first in the U.S. to profile the healthcare experience of retirees with Medicare supplemental insurance paid by employers. The MarketScan Medicare Supplemental Database provides detailed cost, use and outcomes data for healthcare services performed in both inpatient and outpatient settings. […]

Alzheimer's disease = assay: Pharmacoepidemiologic cohort analysis (MarketScan Medicare Supplemental database), incidence of AD; type: in vivo, human
Description: as §1
Study cohorts. The IBM® MarketScan® Medicare Supplemental Database is one of the first in the U.S. to profile the healthcare experience of retirees with Medicare supplemental insurance paid by employers. The MarketScan Medicare Supplemental Database provides detailed cost, use and outcomes data for healthcare services performed in both inpatient and outpatient settings. For most of the population, the medical claims are linked to outpatient prescription drug claims and person-level enrollment data through the use of unique patient or enrollee identifiers. […] This feature makes the database a robust tool for pharmacoeconomic and outcomes research and helps provide insight into the drug use and spending patterns of older Americans. In this study, the pharmacoepidemiology study utilized the MarketScan Medicare Claims database from 2012 to 2017. The dataset included individual-level diagnosis codes, procedure codes and pharmacy claim data for 7.23 million patients. Pharmacy prescriptions of salsalate, diflunisal, and aspirin were identified by using RxNorm and National Drug Code (NDC).
Outcome measurement. For a subject, a drug episode is defined as from drug initiation to drug discontinuation. Specifically, drug initiation is defined as the first day of drug supply (i.e. 1st prescription date). Drug discontinuation is defined as the last day of drug supply (i.e. last prescription date+days of supply) and without drug supply for the next 60 days. In another word, gaps of less than 60-day of drug supply were allowed within a drug episode. The drug cohort included the first drug episode for each subject. For the final cohorts, demographic variables including age, race, sex and geographical location were collected. […]

p300/CBP = conditions: literature (Shirakawa et al., 2016); cited from earlier work

## C#CCN(C)CC1=Cc2ccccc2Oc2ccccc21.O=C(O)/C=C\C(=O)O [CGP3466B]
[1]
  safety in Phase 1 clinical trial: shown safety

## O=C(Oc1ccccc1C(=O)O)c1ccccc1O [salsalate]
C57BL/6J mice
  post-TBI motor impairment (foot slip assay): protects mice from post-TBI impairments
[2]
  body weight: Body weight was not altered
clinically-diagnosed TBI
  hazard ratio [HR], clinically-diagnosed TBI: 0.70
Alzheimer's disease; excluding patients with type 2 diabetes, hypertension, or coronary artery disease, vs. aspirin
  incidence of AD, subgroup analysis: associated with decreased incidence of AD
Alzheimer's disease; vs. PS-matched aspirin cohort, Cox regression model, 6 years of follow-up
  hazard ratio [HR], AD: 0.57
p300/CBP
  inhibition of p300/CBP: known inhibitor of rodent and human p300/CBP
